These results are taken from ChEMBL document CHEMBL3045920, “Antifeedant activity of some diterpenoids” (1999).

Type in all cases: functional
Assay [1] concerns Henosepilachna vigintioctopunctata. Nature of the assay: Antifeedant activity against fourth-instar nymphs of Henosepilachna vigintioctopunctata at 0.5 mg/cm'2 after 4 hr.
The test system is the same in assay [2]. Nature of the assay: Antifeedant activity against fourth-instar nymphs of Henosepilachna vigintioctopunctata at 5 mg/cm'2 after 4 hr.
The test system is the same in assay [3]. Nature of the assay: Antifeedant activity against adults of Henosepilachna vigintioctopunctata at 0.05 mg/cm'2 after 4 hr.
The test system is the same in assay [4]. Nature of the assay: Antifeedant activity against adults of Henosepilachna vigintioctopunctata at 0.5 mg/cm'2 after 4 hr.
Assay [5] has the same test system. Nature of the assay: Antifeedant activity against fourth-instar nymphs of Henosepilachna vigintioctopunctata at 0.05 mg/cm'2 after 4 hr.
Assay [6] shares this test system. Nature of the assay: Antifeedant activity against adults of Henosepilachna vigintioctopunctata at 5 mg/cm'2 after 4 hr.

Consider `C[C@@]12CCCC(CO)(CO)[C@H]1CC[C@H](CO)[C@H]2CCC1=CCOC1=O` [WIGHTIONOLIDE], for which the Activity in assay [1] was -14.03%; in assay [2], -11.72%; in assay [3], 18.42%; in assay [4], 7.15%; in assay [5] it was -52.79%; in assay [6] it was -4.1%.
As for `CC(=O)OC[C@@]12[C@@H](OC(C)=O)C[C@@H](C)[C@](C)([C@@H]3C[C@H]4C=CO[C@H]4O3)[C@H]1CC[C@H](OC(C)=O)[C@]21CO1` [3-EPICARYOPTIN], the Activity in assay [1] amounted to 9.37%; in assay [2], 23.56%; in assay [3], 31.07%; in assay [4], 37.02%; in assay [5] it was 16.12%; in assay [6], 31.93%.
With `C=C1CC[C@@H]2[C@](C)(CO)[C@H](O)CC[C@@]2(C)[C@@H]1C/C=C1/C(=O)OC[C@H]1O` [ANDROGRAPHOLIDE], the Activity in assay [1] is given as -52.38%; in assay [2] it was 54.06%; in assay [3] it was -10.95%; in assay [4], 1.04%; in assay [5], -16.76%; in assay [6], 24.26%.
With `CC(=O)OC[C@@]12[C@@H](OC(C)=O)C[C@@H](C)[C@](C)([C@@H]3C[C@H]4C=CO[C@H]4O3)[C@H]1CC[C@@H](OC(C)=O)[C@]21CO1` [CARYOPTIN], the Activity in assay [1] was 72.51%; in assay [2], 44.46%; in assay [3], -5.31%; in assay [4], -10.03%; in assay [5] it was 34.37%; in assay [6] it was 84.95%.
With `CC(=O)OC[C@@]12[C@@H](OC(C)=O)C[C@@H](C)[C@](C)([C@@H]3C[C@@H]4CCO[C@H]4O3)[C@H]1CC[C@H](OC(C)=O)[C@]21CO1` [14,15-DIHYDRO-3-EPICARYOPTIN], the Activity turned out to be 20.39% in assay [1]; 39.2% in assay [2]; 10.2% in assay [3]; 8.39% in assay [4]; 21.14% in assay [5]; 39.34% in assay [6].
As for `CC(=O)OC[C@@]12C=C[C@@H](C)[C@](C)([C@@H]3C[C@H]4C(OC(C)=O)CO[C@H]4O3)[C@H]1CC[C@H](OC(C)=O)[C@]21CO1` (stereo partly specified), the Activity in assay [1] is on record as -1.39%; in assay [2] it was 1.28%; in assay [3], -20.26%; in assay [4], 22.53%; in assay [5] it was -18.69%; in assay [6] it was 23.45%.
